For 36 compounds, IC50 results are on record in patent publication US8609731B2, “Substituted tetrahydronaphthalenes, process for the preparation thereof and the use thereof as medicaments” (SANOFI, priority 2007, dated 2013).

Molecules are shown by their SMILES.

The IC50 is the midpoint of a concentration-inhibition curve.

T1 sequence (Q99705 whole entry): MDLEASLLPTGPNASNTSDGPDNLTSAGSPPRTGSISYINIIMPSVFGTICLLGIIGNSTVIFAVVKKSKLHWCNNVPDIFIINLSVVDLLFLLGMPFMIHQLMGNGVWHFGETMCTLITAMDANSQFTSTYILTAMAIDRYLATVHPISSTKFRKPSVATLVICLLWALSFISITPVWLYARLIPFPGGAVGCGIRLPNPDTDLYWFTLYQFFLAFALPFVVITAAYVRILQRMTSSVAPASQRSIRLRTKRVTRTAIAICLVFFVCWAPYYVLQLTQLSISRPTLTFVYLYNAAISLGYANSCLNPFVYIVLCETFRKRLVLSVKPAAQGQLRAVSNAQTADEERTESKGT

The test has as its target T1, human MCH receptor (Homo sapiens, UniProt Q99705).
T1 construct: expressed in transfected cells
Nature of the test: calcium mobilization assay (FLIPR); functional IC50 of MCH1R antagonists. It counts as cell-based. Particulars: recombinant HEK293 cell line expressing human MCH receptor; calcium flux after addition of agonist MCH. An excerpt: Influence on the MCH Receptor In Vitro; Determination of Functional IC50 Values of MCH1R Antagonists
Cloning of the cDNA for the human MCH receptor, preparation of a recombinant HEK293 cell line which expresses the human MCH receptor, and functional measurements with the recombinant cell line took place in analogy to the description by Audinot et al. (J. Biol. Chem. 2001, 276, 13554-13562). A difference from the reference was, however, the use of the plasmid pEAK8 from EDGE Biosystems (USA) for the construction of the expression vector. The host used for the transfection was a transformed HEK cell line named “PEAK Stable Cells” (likewise from EDGE Biosystems). Functional measurements of the cellular calcium flux after addition of agonist (MCH) in the presence of ligand of the invention took place with the aid of the FLIPR apparatus from Molecular Devices (USA), using protocols of the apparatus manufacturer. The compounds of the invention show a significant inhibition (>30%) of the signal induced by the agonist at a concentration of 100 μM, preferably at 10 μM, particularly preferably at 1 μM, very particularly preferably at 100 nM and very very particularly preferably at 10 nM.
For orientation: Calcium flux is commonly read through the fluorescence of an indicator in the cells.
Regarding `CN(C(=O)c1ccc(OC[C@@H]2CCCO2)cc1)[C@H]1CCc2cc(CN3CCCC3)ccc2C1` [Example 2, N-Methyl-N-((S)-6-pyrrolidin-1-ylmethyl-1,2,3,4-tetrahydronaphthalen-2-yl)-4-[(S)-1-(tetrahydrofuran-2-yl)methoxy]benzamide], the IC50 was found to be 0.67 µM.

Regarding `O=C(N[C@@H]1CCc2cc(CN3CCCC3)ccc2C1)c1ccc(OC[C@@H]2CCCO2)cc1` [Example 3-2], the IC50 turned out to be 3.29 µM.

Consider `O=C(N[C@H]1CCc2cc(CN3CC4CCCC4C3)ccc2C1)c1ccc(OC[C@@H]2CCCO2)cc1` (stereo partly drawn) [Example 3-14], for which the IC50 was 0.1 µM.

On to `COC(=O)CNCc1ccc2c(c1)CC[C@H](NC(=O)c1ccc(OC[C@@H]3CCCO3)cc1)C2` [Example 3-26], for which the IC50 is 0.36 µM.

As for `O=C(N[C@H]1CCc2cc(CNCCCn3ccnc3)ccc2C1)c1ccc(OC[C@@H]2CCCO2)cc1` [Example 3-32], the IC50 amounted to 0.13 µM.

With `O=C(N[C@H]1CCc2cc(CNCCCN3CCCC3=O)ccc2C1)c1ccc(OC[C@@H]2CCCO2)cc1` [Example 3-33], the IC50 amounted to 0.27 µM.

For the compound `CN1CCN(Cc2ccc3c(c2)CC[C@H](NC(=O)c2ccc(OC[C@@H]4CCCO4)cc2)C3)CC1` [Example 3-37], the IC50 worked out at 0.34 µM.

With `O=C(N[C@H]1CCc2cc(CN3CCC(O)CC3)ccc2C1)c1ccc(OC[C@@H]2CCCO2)cc1` [Example 3-40], the IC50 stood at 0.18 µM.

For `CC(=O)N1CCN(Cc2ccc3c(c2)CC[C@H](NC(=O)c2ccc(OC[C@@H]4CCCO4)cc2)C3)CC1` [Example 3-44], the IC50 was 0.31 µM.

Consider `O=C(N[C@H]1CCc2cc(CN3C[C@H]4CC[C@H](CC4)C3)ccc2C1)c1ccc(OC[C@@H]2CCCO2)cc1` [Example 3-48], for which the IC50 amounted to 0.21 µM.

Take `Cc1ccc(CNCc2ccc3c(c2)CC[C@H](NC(=O)c2ccc(OC[C@@H]4CCCO4)cc2)C3)o1` [Example 3-51]: the IC50 amounted to 0.19 µM.

As to `O=C(N[C@H]1CCc2cc(CNCC3OCCO3)ccc2C1)c1ccc(OC[C@@H]2CCCO2)cc1` [Example 3-61], the IC50 came out at 0.3 µM.

As to `CS(=O)(=O)CCNCc1ccc2c(c1)CC[C@H](NC(=O)c1ccc(OC[C@@H]3CCCO3)cc1)C2` [Example 3-64], the IC50 was found to be 0.18 µM.

For `Cc1cc(CNCc2ccc3c(c2)CC[C@H](NC(=O)c2ccc(OC[C@@H]4CCCO4)cc2)C3)no1` [Example 3-71], the IC50 was determined as 0.75 µM.

For `O=C1CN(Cc2ccc3c(c2)CC[C@H](NC(=O)c2ccc(OC[C@@H]4CCCO4)cc2)C3)CCN1` [Example 3-72], the IC50 is 1.85 µM.

For the compound `O=C(N[C@H]1CCc2cc(CN3CCCOCC3)ccc2C1)c1ccc(OC[C@@H]2CCCO2)cc1` [Example 3-77], the IC50 turned out to be 0.12 µM.

For the compound `N#CC1CCN(Cc2ccc3c(c2)CC[C@H](NC(=O)c2ccc(OC[C@@H]4CCCO4)cc2)C3)CC1` [Example 3-84], the IC50 was determined as 0.17 µM.

On to `O=C(N[C@H]1CCc2cc(CN3CC[C@@H](F)C3)ccc2C1)c1ccc(OC[C@@H]2CCCO2)cc1` [Example 3-86], for which the IC50 came out at 0.12 µM.

With `O=C(N[C@H]1CCc2cc(CN3C[C@@H]4C[C@H]3CO4)ccc2C1)c1ccc(OC[C@@H]2CCCO2)cc1` [Example 3-100], the IC50 turned out to be 0.33 µM.

On to `COc1ccc(CNCc2ccc3c(c2)CC[C@H](NC(=O)c2ccc(OC[C@@H]4CCCO4)cc2)C3)cn1` [Example 3-103], for which the IC50 came out at 0.2 µM.

Turning to `O=C(N[C@H]1CCc2cc(CN3CCn4cnnc4C3)ccc2C1)c1ccc(OC[C@@H]2CCCO2)cc1` [Example 3-120], the IC50 was determined as 2.41 µM.

As for `CC(C)(C)CNCCc1ccc2c(c1)CC[C@H](NC(=O)c1ccc(OC[C@@H]3CCCO3)cc1)C2` [Example 3-135], the IC50 came to 0.15 µM.

Turning to `O=C(N[C@H]1CCc2cc(CN3CCC4(CCCC4)C3)ccc2C1)c1ccc(OC[C@@H]2CCCO2)cc1` [Example 3-194], the IC50 stood at 0.09 µM.

With `CC1(CNCc2ccc3c(c2)CC[C@H](NC(=O)c2ccc(OC[C@@H]4CCCO4)cc2)C3)CCCC1` [Example 3-195], the IC50 came out at 0.11 µM.

Regarding `CC(C)(C)CNC(C)(C)c1ccc2c(c1)CC[C@H](NC(=O)c1ccc(OC[C@@H]3CCCO3)cc1)C2` [Example 8-1, N-{(S)-6-[1-(2,2-Dimethylpropylamino)-1-methylethyl]-1,2,3,4-tetrahydro-naphthalen-2-yl}-4-[(S)-1-(tetrahydrofuran-2-yl)methoxy]benzamide], the IC50 amounted to 0.24 µM.

As for `CC(C)CN1CCCC(c2ccc3c(c2)CC[C@H](NC(=O)c2ccc(OC[C@@H]4CCCO4)cc2)C3)C1` (stereo partly drawn) [Example 8-3], the IC50 is 0.23 µM.

Turning to `CN1CCCCC1c1ccc2c(c1)CC[C@H](NC(=O)c1ccc(OC[C@@H]3CCCO3)cc1)C2` (stereo partly drawn) [Example 8-8], the IC50 was 0.18 µM.

In the case of `CC(C)CCN[C@H](C)c1ccc2c(c1)CC[C@H](NC(=O)c1ccc(OC[C@@H]3CCCO3)cc1)C2` [Example 8-16], the IC50 was found to be 0.12 µM.

For `O=C(N[C@H]1CCc2cc([C@@H]3CCCN(C4CCOCC4)C3)ccc2C1)c1ccc(OC[C@@H]2CCCO2)cc1` [Example 8-26], the IC50 was determined as 0.23 µM.

`CC1(COc2ccc(C(=O)N[C@H]3CCc4cc(CN5CCCCCC5)ccc4C3)cc2)COC1` [Example 9-2]: the IC50 was found to be 1.28 µM.

Regarding `O=C(N[C@H]1CCc2cc(CN3CCCCCC3)ccc2C1)c1ccc(OCC2OCCO2)cc1` [Example 9-3], the IC50 was determined as 0.17 µM.

Consider `O=C(N[C@H]1CCc2cc(CN3CCCCCC3)ccc2C1)c1ccc(OCC2CCOCC2)cc1` [Example 9-4], for which the half-maximal inhibitory concentration (IC50) came out at 0.44 µM.

Turning to `O=C(N[C@H]1CCc2cc(CN3CCCCCC3)ccc2C1)c1ccc(OCC2CCCCO2)cc1` (stereo partly drawn) [Example 9-5], the IC50 was found to be 0.31 µM.

As to `CC1CCN([C@H](C)c2ccc3c(c2)CC[C@H](NC(=O)c2ccc(OC[C@@H]4CCCO4)cc2)C3)CC1` [Example 10, N-{(S)-6-[(R)-1-(4-Methylpiperidin-1-yl)ethyl]-1,2,3,4-tetrahydronaphthalen-2-yl}-4-[(S)-1-(tetrahydrofuran-2-yl)methoxy]benzamide], the IC50 stood at 0.11 µM.

For `O=C(N[C@H]1CCc2cc(CN3CCCCCC3)ccc2C1)c1ccc(OC[C@@H]2CCCO2)c(F)c1` [Example 12, N-((S)-6-Azepan-1-ylmethyl-1,2,3,4-tetrahydronaphthalen-2-yl)-3-fluoro-4-[(S)-1-(tetrahydrofuran-2-yl)methoxy]benzamide], the IC50 was 0.3 µM.

On to `COC1CCN(Cc2ccc3c(c2)CC[C@H](n2ccc4cc(OC[C@@H]5CCCO5)ccc4c2=O)C3)CC1` [Example 13, 2-[(S)-6-(4-Methoxypiperidin-1-ylmethyl)-1,2,3,4-tetrahydronaphthalen-2-yl]-6-[(S)-1-(tetrahydrofuran-2-yl)methoxy]-2H-isoquinolin-1-one], for which the IC50 is 1.4 µM.
